According to patent US8187831B2, “Determination of ions using ion-sensitive enzymes” (General Atomics, priority 2003, dated 2012):
Like-named read-outs stand apart in the source and are kept apart here.

Tests used:
[1] = molecular target: T1, chimeric 3′(2′),5′-bisphosphate nucleotidase (Saccharomyces cerevisiae, UniProt P32179); assay type: biochemical, Saccharomyces cerevisaie
T1 construct: His6 (C)
Excerpt: (§1) Assay Principle. […] Through enzymatic coupling, the phosphatase substrate, adenosine 3′,5′-bisphosphate (PAP) was converted to hypoxanthine by a series of enzymatic reactions to generate uric acid and hydrogen peroxide (H2O2). H2O2 generated reacts with N-Ethyl-N-(2-hydroxy-3-sulfopropyl)-3-m-toluidine (EHSPT) and 4-aminoantipyrine (4-AA) in the presence of peroxidase (POD) to form a quinone dye which had maximal absorbance at 556 nm. The rate of the quinine dye formation was inversely proportion to the concentration of sodium in serum samples. The enzymatic coupling reaction scheme is shown below in Table 3:
Key Assay Characteristics. The sodium enzymatic assay was a two reagent (R1 and R2) based kinetic assay system. The results were obtained in 10 min by measuring absorbance at 550 nm. No off line pretreatment was needed.
(§2) Assay Procedure. • 1. Reconstituted R1 and R2 reagents as described in Reagent Preparation section and kept the reconstituted R1 and R2 reagents on ice bath. • 2. In a cuvette, mixed 180 μL of Reagent R1 and 20 μL of serum sample and incubated at 37° C. for 1 minute and then added 85 μL of Reagent 2. • 3. Read absorbance (550 nm) at 3 min (2 min after addition of Reagent 2) as A1. Incubated for a further 7 min and read the absorbance at 10 min as A2. • 4. Calculated ΔA=A2−A1
Calibration. This assay was calibrated daily using the enclosed low and high sodium standards. A calibration curve was constructed by plotting the ΔA values of the standards against the corresponding sodium concentrations. The sodium concentration of the sample was read from the calibration curve.

[2] = molecular target: T1, chimeric 3′(2′),5′-bisphosphate nucleotidase; experiment: biochemical; parameters: species or system Saccharomyces cerevisaie
Excerpt: as §1, with “(H2O2). The” for “(H2O2).”, “reacted” for “reacts”, “lithium” for “sodium”, “6.” for “3:”
Key Assay Characteristics. The lithium enzymatic assay was a two reagent (R1 and R2) based kinetic assay system. The results were obtained in 10 min by measuring absorbance at 550 nm. No off line pretreatment was needed.
as §2, with “5” for “20”, “6 minutes” for “3 min (2 min after addition of Reagent 2)”, “3 more minutes” for “a further 7 min”, “9 minute” for “10 min”
Calibration and Quality Control. The assay was calibrated daily using the enclosed low and high lithium standards. The calibration curve was constructed by plotting the ΔA values of the standards against the corresponding lithium concentrations. The lithium concentration of the sample was read from the calibration curve. The assay should be calibrated daily.

T1 sequence (P32179 other isoform, or with tags, fused parts or gaps): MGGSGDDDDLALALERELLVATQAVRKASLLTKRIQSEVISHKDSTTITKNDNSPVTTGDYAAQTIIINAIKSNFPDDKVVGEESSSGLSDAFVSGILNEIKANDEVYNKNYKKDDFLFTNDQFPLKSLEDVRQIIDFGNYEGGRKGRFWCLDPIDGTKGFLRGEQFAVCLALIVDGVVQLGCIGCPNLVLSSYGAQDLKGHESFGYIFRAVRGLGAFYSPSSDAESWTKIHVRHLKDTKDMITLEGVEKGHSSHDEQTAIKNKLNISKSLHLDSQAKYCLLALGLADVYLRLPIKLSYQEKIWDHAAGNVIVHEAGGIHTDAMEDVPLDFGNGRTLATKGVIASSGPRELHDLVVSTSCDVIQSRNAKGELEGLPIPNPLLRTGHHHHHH

`[Ca+2].[Cl-].[Cl-]` [CaCl2] was tested, and the “Interference with sodium assay” value ([1]; substance at 5 mM) was “not interfered”.
For `[Ca+2]` [Ca^2+], the “Interference with lithium assay” value ([2]; substance at 4.0 mM) was “not interfered”.
For `[Cl][Cu][Cl]` [CuCl2], the “Interference with sodium assay” value ([1]; substance at 0.25 mM) was “not interfered”.
With `[Cu+2]` [Cu^2+] the “Interference with lithium assay” value ([2]; substance at 0.25 mM) was “not interfered”.
For `[Cl][Fe]([Cl])[Cl]` [FeCl3], the “Interference with sodium assay” value ([1]; substance at 0.25 mM) was “not interfered”.
In the case of `[Fe+3]` [Fe^3+], the “Interference with lithium assay” value ([2]; substance at 0.25 mM) is reported as “not interfered”.
In the case of `[Cl-].[K+]` [KCl], the “Interference with sodium assay” value ([1]; substance at 10 mM) is reported as “not interfered”.
In the case of `[K+]` [K^+], the “Interference with lithium assay” value [2] is reported as “not interfered”.
`[Mg+2]` [Mg^2+] was tested, and the “Interference with lithium assay” value ([2]; substance at 2.0 mM) was “not interfered”.
For `Cl.N` [NH4Cl], the “Interference with sodium assay” value [1] was “not interfered”.
In the case of `N` [NH4^+], the “Interference with lithium assay” value ([2]; substance at 0.5 mM) is reported as “not interfered”.
`[Cl-].[Na+]` [NaCl] was tested, and the “Interference with sodium assay” value [1] was “not interfered”.
For `[Cl-].[Cl-].[Zn+2]` [ZnCl2], the “Interference with sodium assay” value ([1]; substance at 0.25 mM) was “not interfered”.
In the case of `[Zn+2]` [Zn^2+], the “Interference with lithium assay” value ([2]; substance at 0.25 mM) is reported as “not interfered”.
In the case of `O=C1O[C@H]([C@@H](O)CO)C(O)=C1O` [ascorbic acid], the “Interference with sodium assay” value ([1]; substance at 5 mM) is reported as “not interfered” and the “Interference with lithium assay” value ([2]; substance at 5.0 mM) is reported as “not interfered”.
`[Li]` [lithium, reference compound] showed an IC50 ([2]; read-out: IC50 (nucleotidase activity sensitive to lithium concentration)) of 0.1 mM.
With `[Na+]` [sodium] the IC50 ([1]; read-out: IC50 (nucleotidase activity sensitive to sodium concentration)) was 20 mM and the “Interference with lithium assay” value ([2]; substance at 200 mM) was “not interfered”.
With KPi the “Interference with sodium assay” value ([1]; substance at 1.5 mM) was “not interfered”.
In the case of triglyceride, the “Interference with sodium assay” value ([1]; substance at 250 mg/dl) is reported as “not interfered”.
